pIC50, pKi: −log10 of the molar value. Where two headings read alike, the source gives them in different places.
Tests used:
[1] = biological target: T1, electric eel acetylcholinesterase (eeAChE) (Electrophorus electricus, UniProt O42275); assay: Cholinesterase inhibition assay (Ellman's method), eeAChE; format: biochemical; details: for pIC50: Ellman's method, 25 °C, pH 7.4
T1 construct: purchased Sigma-Aldrich, St. Louis, MO, USA
Method: (§1) Cholinesterase activity was measured by Ellman’s method adapted for microtiter plates, as previously described by Ristovski et al.. A complex and its ligands were first screened for the IC50 determination and then the inhibitory constants (Ki) were determined. A stock solution of C1 (1 mg/mL) was prepared in 5% v/v DMSO in deionized water, while a stock solution of chlorido analogue C1′ (1 mg/mL) was prepared in 100% methanol (MeOH). […] These solutions were added to the wells, and gradually diluted in 100 mM of potassium phosphate buffer (pH 7.4) to the final volume of 50 µL. Acetylthiocholine chloride and 5,5′-dithiobis-2-nitrobenzoic acid were then dissolved in the same buffer to the respective final concentrations of 1 and 0.5 mM and added (100 μL) to the wells of the microtiter plates. C1 was screened against a suite of ChEs of human and animal origin (eeAChE, hrAChE, hsBChE) (all three from Sigma-Aldrich, St. Louis, MO, USA), hrBChE (gift from the research group of Professor Stanislav Gobec, Faculty of Pharmacy, University of Ljubljana), and csBChE. All enzymes were dissolved in the 100 mM potassium phosphate buffer (pH 7.4) to 0.0075 U/mL. Fifty μL of each ChE was added to start the reactions, which were followed spectrophotometrically at 405 nm and 25 °C for 5 min using a kinetic microplate reader (Dynex Technologies Inc., Chantilly, VA, USA). The blank reactions without the inhibitors were run with the appropriate dilutions of the solvents, in which the tested compound and positive control were initially diluted (5% aqueous DMSO or 100% MeOH), and the readings were corrected according to the appropriate blanks. […] Each measurement was repeated at least three times. Data were analyzed using OriginPro software (OriginPro 2020, OriginLab Corporation, Northampton, MA, USA).

[2] = biological target: T2, human recombinant acetylcholinesterase (hrAChE) (Homo sapiens, UniProt P22303); assay: Cholinesterase inhibition assay (Ellman's method), hrAChE; format: biochemical; details: for pIC50: Ellman's method, 25 °C, pH 7.4
T2 construct: purchased Sigma-Aldrich, St. Louis, MO, USA
T2 sequence (P22303 32-614): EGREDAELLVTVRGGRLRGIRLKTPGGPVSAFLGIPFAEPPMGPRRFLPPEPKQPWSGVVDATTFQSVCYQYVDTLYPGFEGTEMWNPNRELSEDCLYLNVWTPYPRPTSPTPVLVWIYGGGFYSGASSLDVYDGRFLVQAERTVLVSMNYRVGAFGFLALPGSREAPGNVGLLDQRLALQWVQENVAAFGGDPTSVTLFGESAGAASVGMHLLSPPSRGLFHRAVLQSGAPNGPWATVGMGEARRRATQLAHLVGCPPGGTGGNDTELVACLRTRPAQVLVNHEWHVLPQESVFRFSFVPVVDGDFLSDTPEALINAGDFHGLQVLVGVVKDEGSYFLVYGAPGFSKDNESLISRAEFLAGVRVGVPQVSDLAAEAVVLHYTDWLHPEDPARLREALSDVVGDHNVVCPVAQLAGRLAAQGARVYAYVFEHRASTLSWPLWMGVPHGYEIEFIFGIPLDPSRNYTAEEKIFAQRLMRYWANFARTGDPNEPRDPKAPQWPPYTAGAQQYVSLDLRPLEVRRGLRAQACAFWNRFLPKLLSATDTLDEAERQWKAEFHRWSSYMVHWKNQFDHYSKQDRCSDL
Method: as §1

[3] = biological target: T3, horse serum butyrylcholinesterase (hsBChE) (Equus caballus, UniProt P81908); assay: Cholinesterase inhibition assay (Ellman's method), hsBChE; format: biochemical; details: for pIC50: Ellman's method, 25 °C, pH 7.4
T3 construct: BChE derived from horse serum; purchased Sigma-Aldrich, St. Louis, MO, USA; host or cells: horse serum
T3 sequence (P81908 whole entry): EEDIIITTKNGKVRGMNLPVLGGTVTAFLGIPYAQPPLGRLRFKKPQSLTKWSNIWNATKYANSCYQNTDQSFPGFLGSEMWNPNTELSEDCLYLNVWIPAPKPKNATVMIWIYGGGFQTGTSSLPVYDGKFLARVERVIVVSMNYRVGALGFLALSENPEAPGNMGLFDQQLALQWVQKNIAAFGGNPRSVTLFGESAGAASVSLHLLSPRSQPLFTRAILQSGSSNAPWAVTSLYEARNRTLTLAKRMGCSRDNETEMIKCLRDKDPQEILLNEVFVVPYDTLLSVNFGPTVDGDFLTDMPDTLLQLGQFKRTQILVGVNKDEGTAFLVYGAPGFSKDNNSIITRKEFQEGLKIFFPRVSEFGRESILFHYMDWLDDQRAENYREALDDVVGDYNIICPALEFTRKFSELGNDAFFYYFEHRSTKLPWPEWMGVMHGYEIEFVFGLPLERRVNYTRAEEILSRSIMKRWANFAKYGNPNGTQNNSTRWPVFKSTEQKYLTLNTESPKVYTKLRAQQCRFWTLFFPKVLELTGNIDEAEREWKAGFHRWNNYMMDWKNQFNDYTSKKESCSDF
Method: as §1

[4] = biological target: T4, human recombinant butyrylcholinesterase (hrBChE) (Homo sapiens, UniProt P06276); assay: Cholinesterase inhibition assay (Ellman's method), hrBChE; format: biochemical; details: for pIC50: Ellman's method, 25 °C, pH 7.4
T4 construct: gift from the research group of Professor Stanislav Gobec, Faculty of Pharmacy, University of Ljubljana
T4 sequence (P06276 29-602): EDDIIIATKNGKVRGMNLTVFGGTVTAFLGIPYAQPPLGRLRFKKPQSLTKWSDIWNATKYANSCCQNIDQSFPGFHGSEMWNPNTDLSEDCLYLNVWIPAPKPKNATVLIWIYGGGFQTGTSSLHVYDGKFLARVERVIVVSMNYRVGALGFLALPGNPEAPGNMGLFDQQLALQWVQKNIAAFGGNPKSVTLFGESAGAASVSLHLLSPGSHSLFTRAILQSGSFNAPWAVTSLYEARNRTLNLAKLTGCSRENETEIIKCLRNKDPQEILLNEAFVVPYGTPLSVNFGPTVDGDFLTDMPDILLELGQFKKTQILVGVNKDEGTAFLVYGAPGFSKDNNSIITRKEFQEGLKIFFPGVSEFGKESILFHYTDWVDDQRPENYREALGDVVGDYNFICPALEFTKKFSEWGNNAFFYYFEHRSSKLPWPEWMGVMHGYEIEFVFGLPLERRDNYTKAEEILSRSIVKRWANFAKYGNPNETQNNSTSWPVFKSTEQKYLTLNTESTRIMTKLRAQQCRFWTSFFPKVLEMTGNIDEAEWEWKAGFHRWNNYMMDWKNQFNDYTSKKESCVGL
Method: as §1

[5] = biological target: canine serum butyrylcholinesterase (csBChE) (Canis lupus familiaris, UniProt A0A8I3PBA0); assay: Cholinesterase inhibition assay (Ellman's method), csBChE; format: biochemical; details: for pIC50: Ellman's method, 25 °C, pH 7.4
canine serum butyrylcholinesterase (csBChE), sequence (A0A8I3PBA0 29-602): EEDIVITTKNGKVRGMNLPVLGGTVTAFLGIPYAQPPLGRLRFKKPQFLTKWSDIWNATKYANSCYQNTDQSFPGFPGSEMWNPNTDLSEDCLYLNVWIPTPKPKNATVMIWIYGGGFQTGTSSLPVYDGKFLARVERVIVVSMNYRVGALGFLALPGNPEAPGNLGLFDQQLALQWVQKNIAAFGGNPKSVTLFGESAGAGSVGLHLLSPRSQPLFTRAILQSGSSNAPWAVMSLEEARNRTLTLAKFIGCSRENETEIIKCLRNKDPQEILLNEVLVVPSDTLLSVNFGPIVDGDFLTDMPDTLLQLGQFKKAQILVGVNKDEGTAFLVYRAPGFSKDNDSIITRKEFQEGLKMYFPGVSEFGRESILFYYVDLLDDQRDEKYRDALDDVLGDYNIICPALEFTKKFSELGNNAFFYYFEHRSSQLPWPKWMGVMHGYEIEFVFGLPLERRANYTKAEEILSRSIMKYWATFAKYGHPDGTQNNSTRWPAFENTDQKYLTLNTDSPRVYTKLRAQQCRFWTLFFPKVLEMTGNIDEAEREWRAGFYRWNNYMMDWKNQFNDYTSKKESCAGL
Method: as §1

[6] = biological target: T1, electric eel acetylcholinesterase (eeAChE); details: previously reported; ref Ristovski et al. [9]; cited from earlier work
[7] = biological target: T2, human recombinant acetylcholinesterase (hrAChE); details: previously reported; ref Ristovski et al. [9]; cited from earlier work
[8] = biological target: T3, horse serum butyrylcholinesterase (hsBChE); details: previously reported; ref Ristovski et al. [9]; cited from earlier work
[9] = system: isolated mouse nerve-hemidiaphragm preparation; assay: Muscle contraction recordings on isolated hemidiaphragm
Method: (§2) Mice were sacrificed by cervical dislocation and immediate exsanguination. After dissection of the diaphragm muscle with both phrenic nerves, the diaphragm muscle was cut into two hemidiaphragms. Each hemidiaphragm was maintained in oxygenated standard Krebs-Ringer solution (154 mM NaCl, 5 mM KCl, 2 mM CaCl2, 1 mM MgCl2, 5 mM HEPES, and 11 mM D-glucose; pH 7.4). Just prior to experiments, C1 was dissolved in a solution of 2.5% DMSO in deionized water at a stock concentration of 2 mg/mL. The final concentration of DMSO in the organ bath was always 0.104% v/v. All experiments were performed at room temperature (22–24 °C).
The hemidiaphragm with phrenic nerve was pinned on its lateral side into a silicon-coated organ bath containing oxygenated Krebs-Ringer (K-R) solution. Then, the tendon part was linked to the lever of an isometric mechano-electrical transducer (Grass Instruments, West Warwick, RI, USA) via a stainless-steel hook and silk thread. The equal stimulus protocol, equipment, and software were used as previously described by Ristovski et al.. The concentrations of C1 studied were 30, 60, 90, and 120 μM and their effect on muscle contraction was continuously measured during 60 min after application. The muscle twitch and tetanic contraction blockade produced by C1 was shown as the percentage of the initial maximal response.

[10] = system: AChE in mouse diaphragm muscle; details: 3 µM; cited from earlier work
[11] = biological target: T3, horse serum butyrylcholinesterase (hsBChE); assay: Cholinesterase inhibition assay (Ellman's method), hsBChE; format: biochemical; details: substrate acetylthiocholine 0.125, 0.25, 0.5 mM
[12] = system: mouse hemidiaphragm muscle fibers; details: 120 µM; for resting membrane potential (rVm), median: end-plate regions of surface fibers
Method: as §2
Electrophysiological recordings on hemidiaphragm muscle fibers were performed using conventional microelectrode techniques. For measurements of rVm, EPP, and MEPP, hemidiaphragm preparations were immersed in oxygenated K-R solution containing 1.6 μM of μ-conotoxin GIIIB (Bachem, Bubendorf, Switzerland) and incubated for 30 min. The same stimulus protocol, equipment, and software were used to perform membrane potential recordings, as previously described by Ristovski et al.. Only the highest concentration of C1 (120 μM) was studied. The recordings were performed before applying C1, 30 and 60 min after the compound application, and 15 min after the compound wash-out. MEPP and EPP amplitudes were normalized to a rVm of −70 mV using the formula: Vc = Vo (−70)/rVm, where Vc is the normalized amplitude of MEPPs and EPPs, and Vo is their recorded amplitude.

T1 sequence (O42275 24-633): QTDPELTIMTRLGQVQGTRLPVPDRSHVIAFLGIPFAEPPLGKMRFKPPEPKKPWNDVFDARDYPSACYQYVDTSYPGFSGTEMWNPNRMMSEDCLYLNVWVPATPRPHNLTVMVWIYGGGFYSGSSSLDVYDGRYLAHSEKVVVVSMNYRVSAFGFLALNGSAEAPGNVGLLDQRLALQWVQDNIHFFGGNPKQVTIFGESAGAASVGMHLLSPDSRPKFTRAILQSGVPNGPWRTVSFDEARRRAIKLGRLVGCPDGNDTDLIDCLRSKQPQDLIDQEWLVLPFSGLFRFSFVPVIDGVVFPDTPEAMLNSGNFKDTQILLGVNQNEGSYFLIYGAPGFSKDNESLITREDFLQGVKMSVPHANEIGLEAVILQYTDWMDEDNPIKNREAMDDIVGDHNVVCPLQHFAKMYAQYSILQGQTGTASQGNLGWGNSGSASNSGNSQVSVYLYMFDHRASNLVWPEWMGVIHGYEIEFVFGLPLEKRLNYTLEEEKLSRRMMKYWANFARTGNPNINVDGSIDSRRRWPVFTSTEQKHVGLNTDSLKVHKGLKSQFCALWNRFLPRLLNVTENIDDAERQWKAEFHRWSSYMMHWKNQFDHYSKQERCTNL

| Molecule | inhibition of eeAChE (in words) [1] | pIC50 [1] | inhibition of hrAChE (in words) [2] | pIC50 [2] | inhibition of hsBChE (in words) [3] | pIC50 [3] | inhibition of hrBChE (in words) [4] | pIC50 [4] | inhibition of csBChE (in words) [5] | pIC50 [5] | type of inhibition of hsBChE [3] | pKi [11] | other results |
| --- | --- | --- | --- | --- | --- | --- | --- | --- | --- | --- | --- | --- | --- |
| COc1cccn(O)c1=S [Compound L1, 1-hydroxy-3-methoxypyridine-2(1H)-thion] | did not inhibit | < 3.74 | did not inhibit | < 3.74 | did not inhibit | < 3.74 | did not inhibit | < 3.74 | did not inhibit | < 3.74 |  |  |  |
| Cc1ccc(C(C)C)cc1.Cc1ccc(C(C)C)cc1.[Cl][Ru][Cl].[Cl][Ru][Cl] [Compound P1, dichloro(p-cymene)ruthenium(II) dimer] |  |  |  |  |  |  |  |  |  |  |  |  | pIC50 [6]: < 3.74; pIC50 [7]: < 3.74; pIC50 [8]: 4.49; pKi [8]: 4.63 |
| CN(C)C(=O)Oc1cccc([N+](C)(C)C)c1 [Neostigmine, neostigmine methyl sulphate, reference compound] |  | 5.41 |  |  |  | 4.20 |  | 3.76 |  | 4.55 |  |  | effect on nerve-evoked single-muscle and tetanic contraction ([9]; 3 µM, positive control): a slight increase in the amplitude of the nerve-evoked single-muscle contraction and a tetanic fade; inhibition of AChE in mouse diaphragm muscle [10]: 96% |
| [(η^6-p-Cymene)Ru(II)(1-hydroxy-3-methoxypyridine-2(1H)-thionato)Cl] [C1′] | low micromolar range | 5.12 | low micromolar range | 5.30 | low micromolar range | 5.63 | low micromolar range | 5.89 | low micromolar range | 5.64 | reversible competitive type | 5.47 | type of inhibition of eeAChE [1]: reversible competitive type; pKi ([1]; substrate 0.125, 0.25, 0.5 mM): 5.32; type of inhibition of hrAChE [2]: reversible competitive type; pKi ([2]; substrate 0.125, 0.25, 0.5 mM): 5.27; type of inhibition of hrBChE [4]: reversible competitive type; pKi ([4]; substrate 0.125, 0.25, 0.5 mM): 5.90; type of inhibition of csBChE [5]: reversible competitive type; pKi ([5]; substrate 0.125, 0.25, 0.5 mM): 5.52 |
| [(η^6-p-Cymene)Ru(II)(1-hydroxy-3-methoxypyridine-2(1H)-thionato)pta]PF6 [Compound C1] | did not inhibit | < 3.74 | did not inhibit | < 3.74 | selectively inhibited | 5.54 |  | 3.84 |  | < 3.74 | reversible competitive type | 5.88 | inhibition of hrBChE lower compared to hsBChE ([4]; ratio of IC50 hrBChE versus hsBChE): about 50 times; inhibition of csBChE (in words) ([5]; concentrations (0–180 µM) tested): did not inhibit; nerve-evoked single-twitch and tetanic contractions ([9]; 120 µM, 60 min exposure): not statistically significant increases; effect on maximal amplitude of nerve-evoked and directly elicited single-twitch and tetanic contractions ([9]; 30, 60, 90 and 120 µM, 60 min exposure): no significant effect; resting muscle tension ([9]; 30-120 µM, an increase would indicate a myotoxic effect): did not detect an increase; resting membrane potential (rVm), median ([12]; 30 min after exposure): −66.13 mV; resting membrane potential (rVm), median ([12]; 60 min after exposure): −66.63 mV; effect on resting membrane potential (rVm) ([12]; after 30 and 60 min of exposure): no effect; MEPPs frequency ([12]; within 60 min): without reducing; amplitudes of EPPs ([12]; within 60 min): did not affect; amplitudes of MEPPs ([12]; within 60 min): significantly decreased; half-decay time of EPPs ([12]; within 60 min of exposure): shortened; half-decay time of MEPPs ([12]; within 60 min of exposure): shortened |
